Assay results: US20050222100A1 (priority 2002, published 2005)

Assay: Pilot study: irregular vaginal bleeding
Type: in vivo, post-menopausal women
Details: 2.5 mg tibolone per day added to 20 mg tamoxifen per day
Source text: The women, all below the age of 65 years, were postmenopausal for at least three years at the time of diagnosis. Their follicle stimulating hormone (FSH) levels were greater than 40 IU/L and their estradiol (E2) levels were below 20 pg/mL.

Structure (SMILES): C#C[C@]1(O)CC[C@H]2[C@@H]3[C@H](C)CC4=C(CCC(=O)C4)[C@H]3CC[C@@]21C [Tibolone, (7α, 17α)-17-hydroxy-7-methyl-19-nor-17-pregn-5(10)-en-20-yn-3-one]
- effect on irregular bleeding: minimal effect
